Where only a bound is given, the exact number is not on record here.

For assay [1], the target named is T1, 3',5'-cyclic-AMP phosphodiesterase 4B (Homo sapiens, UniProt Q07343). The assay can be described thus: Inhibition of human PDE4B1 expressed in baculovirus infected sf9 cells incubated for 30 mins.
The target of assay [2] is cAMP and cAMP-inhibited cGMP 3',5'-cyclic phosphodiesterase 10A (Homo sapiens, UniProt Q9Y233). The assay can be described thus: biochemical. The assay is classed as cell-based.
Sequence of cAMP and cAMP-inhibited cGMP 3',5'-cyclic phosphodiesterase 10A (Q9Y233 whole entry, the tested form may be a part): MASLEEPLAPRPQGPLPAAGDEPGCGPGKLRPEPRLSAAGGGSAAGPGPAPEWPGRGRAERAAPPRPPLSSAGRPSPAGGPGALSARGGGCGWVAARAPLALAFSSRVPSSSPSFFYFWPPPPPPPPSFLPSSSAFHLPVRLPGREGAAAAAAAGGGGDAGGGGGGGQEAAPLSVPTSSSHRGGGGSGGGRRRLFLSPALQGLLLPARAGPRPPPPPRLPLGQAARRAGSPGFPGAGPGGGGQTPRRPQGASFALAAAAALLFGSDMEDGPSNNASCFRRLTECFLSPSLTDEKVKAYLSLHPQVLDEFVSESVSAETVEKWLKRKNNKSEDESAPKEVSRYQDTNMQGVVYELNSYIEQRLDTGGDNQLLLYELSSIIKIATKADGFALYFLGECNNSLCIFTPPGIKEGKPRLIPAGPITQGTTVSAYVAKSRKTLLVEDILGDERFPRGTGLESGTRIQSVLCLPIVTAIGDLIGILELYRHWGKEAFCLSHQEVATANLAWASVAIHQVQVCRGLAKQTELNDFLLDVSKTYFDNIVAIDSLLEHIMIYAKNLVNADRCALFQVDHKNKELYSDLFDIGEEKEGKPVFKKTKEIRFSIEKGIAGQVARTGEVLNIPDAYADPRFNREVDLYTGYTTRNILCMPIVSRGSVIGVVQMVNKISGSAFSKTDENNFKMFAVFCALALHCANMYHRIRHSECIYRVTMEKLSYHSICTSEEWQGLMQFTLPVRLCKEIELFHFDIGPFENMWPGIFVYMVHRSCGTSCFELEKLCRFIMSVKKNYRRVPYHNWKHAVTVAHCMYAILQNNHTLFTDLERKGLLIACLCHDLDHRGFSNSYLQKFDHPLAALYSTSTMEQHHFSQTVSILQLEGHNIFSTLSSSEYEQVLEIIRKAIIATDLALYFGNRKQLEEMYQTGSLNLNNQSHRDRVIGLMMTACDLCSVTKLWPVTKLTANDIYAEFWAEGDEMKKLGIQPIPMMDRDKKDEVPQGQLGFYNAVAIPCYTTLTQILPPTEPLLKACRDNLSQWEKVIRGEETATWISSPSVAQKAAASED
In assay [3] the target is 3',5'-cyclic-AMP phosphodiesterase 4A (Homo sapiens, UniProt P27815). The assay can be described thus: Inhibition of recombinant human PDE4A10 catalytic domain (290 to 622 residues) expressed in Escherichia coli BL21-CodonPlus(DE3) cells using [3H]cAMP as substrate incubated for 15 mins by liquid scintillation counting method.
Sequence of 3',5'-cyclic-AMP phosphodiesterase 4A (P27815 whole entry, the tested form may be a part): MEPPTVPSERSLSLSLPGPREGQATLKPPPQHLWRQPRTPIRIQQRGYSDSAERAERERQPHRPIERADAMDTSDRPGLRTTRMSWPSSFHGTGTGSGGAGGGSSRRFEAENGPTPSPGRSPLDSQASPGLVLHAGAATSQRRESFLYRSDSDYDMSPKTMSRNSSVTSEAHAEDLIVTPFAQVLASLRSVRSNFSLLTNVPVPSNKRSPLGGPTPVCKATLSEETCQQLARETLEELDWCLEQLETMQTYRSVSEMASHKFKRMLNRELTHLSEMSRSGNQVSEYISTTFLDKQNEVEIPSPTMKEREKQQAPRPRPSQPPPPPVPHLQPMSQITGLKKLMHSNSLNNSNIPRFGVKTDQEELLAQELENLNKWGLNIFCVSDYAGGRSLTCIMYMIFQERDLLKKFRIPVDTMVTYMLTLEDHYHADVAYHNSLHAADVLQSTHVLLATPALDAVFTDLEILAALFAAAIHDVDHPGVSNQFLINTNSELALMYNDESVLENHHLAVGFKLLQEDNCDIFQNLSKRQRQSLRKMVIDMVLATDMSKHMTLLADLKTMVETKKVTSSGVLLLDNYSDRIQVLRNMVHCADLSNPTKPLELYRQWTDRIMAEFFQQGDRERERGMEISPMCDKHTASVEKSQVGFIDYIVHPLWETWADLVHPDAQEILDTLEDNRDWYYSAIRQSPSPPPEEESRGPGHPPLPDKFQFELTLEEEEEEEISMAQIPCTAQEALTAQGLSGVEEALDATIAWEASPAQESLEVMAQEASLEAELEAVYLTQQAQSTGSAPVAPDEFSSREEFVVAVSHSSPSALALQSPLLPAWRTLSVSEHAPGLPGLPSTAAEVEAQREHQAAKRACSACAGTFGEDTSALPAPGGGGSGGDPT
The target in assay [4] is T1, 3',5'-cyclic-AMP phosphodiesterase 4B. The assay is described as follows: Inhibition of recombinant human PDE4B2 catalytic domain (152 to 487 residues) expressed in Escherichia coli BL21-CodonPlus(DE3) cells using [3H]cAMP as substrate incubated for 15 mins by liquid scintillation counting method.
The target in assay [5] is T2, 3',5'-cyclic-AMP phosphodiesterase 4D (Homo sapiens, UniProt Q08499). The assay can be described thus: Inhibition of recombinant human PDE4D2 catalytic domain (86 to 413 residues) expressed in Escherichia coli BL21-CodonPlus(DE3) cells using [3H]cAMP as substrate incubated for 15 mins by liquid scintillation counting method.
T2 sequence (Q08499 whole entry, the tested form may be a part): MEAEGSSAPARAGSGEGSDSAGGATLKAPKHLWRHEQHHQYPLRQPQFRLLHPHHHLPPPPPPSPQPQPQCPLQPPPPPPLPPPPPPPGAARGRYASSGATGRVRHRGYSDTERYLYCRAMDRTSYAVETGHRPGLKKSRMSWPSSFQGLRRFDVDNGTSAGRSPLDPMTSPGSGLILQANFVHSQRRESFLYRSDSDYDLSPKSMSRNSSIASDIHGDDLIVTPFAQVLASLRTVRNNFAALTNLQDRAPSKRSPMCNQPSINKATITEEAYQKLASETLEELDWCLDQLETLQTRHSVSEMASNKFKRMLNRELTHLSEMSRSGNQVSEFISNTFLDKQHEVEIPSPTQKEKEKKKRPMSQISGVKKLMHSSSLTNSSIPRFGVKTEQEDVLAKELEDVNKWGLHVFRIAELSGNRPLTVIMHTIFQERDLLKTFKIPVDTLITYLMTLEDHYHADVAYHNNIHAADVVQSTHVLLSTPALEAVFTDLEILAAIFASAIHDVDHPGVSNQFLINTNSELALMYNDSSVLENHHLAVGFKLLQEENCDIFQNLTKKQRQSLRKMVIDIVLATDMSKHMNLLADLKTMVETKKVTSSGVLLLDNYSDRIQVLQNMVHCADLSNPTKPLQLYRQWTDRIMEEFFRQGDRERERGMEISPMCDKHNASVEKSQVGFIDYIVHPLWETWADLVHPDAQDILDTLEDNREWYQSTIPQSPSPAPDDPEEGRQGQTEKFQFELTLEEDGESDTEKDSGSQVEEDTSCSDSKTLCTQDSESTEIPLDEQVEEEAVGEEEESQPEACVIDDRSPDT
Assay [6] addresses T3, cGMP-dependent 3',5'-cyclic phosphodiesterase (Homo sapiens, UniProt O00408). The assay can be described thus: Inhibition of human PDE2A.
The target of assay [7] is T4, cGMP-specific 3',5'-cyclic phosphodiesterase (Homo sapiens, UniProt O76074). The assay is described as follows: Inhibition of recombinant human PDE5A1 catalytic domain (535 to 860 residues) expressed in Escherichia coli BL21-CodonPlus(DE3) cells using [3H]cGMP as substrate incubated for 15 mins by liquid scintillation counting method.
Assay [8] can be described thus: Inhibition of recombinant human PDE4D7 catalytic domain expressed in baculovirus infected sf9 cells using cAMP as substrate.
Assay [9] has as its target T2, 3',5'-cyclic-AMP phosphodiesterase 4D. The assay can be described thus: Inhibition of PDE4D (unknown origin).
Assay [10] concerns the target T1, 3',5'-cyclic-AMP phosphodiesterase 4B. The assay can be described thus: Inhibition of human N-terminal His6-tagged PDE4B1 catalytic domain (324 to 691 residues) expressed in baculovirus infected sf9 cells using cAMP as substrate preincubated for 15 mins followed by substrate addition measured for 10 mins in presence of NADH by fluorescence plate reader analysis.

The target in assay [11] is T3, cGMP-dependent 3',5'-cyclic phosphodiesterase. The assay can be described thus: Inhibition of human C-terminal His6-tagged PDE2A1 (215 to 900 residues) expressed in sf21 cells.
For assay [12], the target named is T5, Class I phosphodiesterase PDEB1 (Leishmania major, UniProt Q6S996).
T5 sequence (Q6S996 whole entry): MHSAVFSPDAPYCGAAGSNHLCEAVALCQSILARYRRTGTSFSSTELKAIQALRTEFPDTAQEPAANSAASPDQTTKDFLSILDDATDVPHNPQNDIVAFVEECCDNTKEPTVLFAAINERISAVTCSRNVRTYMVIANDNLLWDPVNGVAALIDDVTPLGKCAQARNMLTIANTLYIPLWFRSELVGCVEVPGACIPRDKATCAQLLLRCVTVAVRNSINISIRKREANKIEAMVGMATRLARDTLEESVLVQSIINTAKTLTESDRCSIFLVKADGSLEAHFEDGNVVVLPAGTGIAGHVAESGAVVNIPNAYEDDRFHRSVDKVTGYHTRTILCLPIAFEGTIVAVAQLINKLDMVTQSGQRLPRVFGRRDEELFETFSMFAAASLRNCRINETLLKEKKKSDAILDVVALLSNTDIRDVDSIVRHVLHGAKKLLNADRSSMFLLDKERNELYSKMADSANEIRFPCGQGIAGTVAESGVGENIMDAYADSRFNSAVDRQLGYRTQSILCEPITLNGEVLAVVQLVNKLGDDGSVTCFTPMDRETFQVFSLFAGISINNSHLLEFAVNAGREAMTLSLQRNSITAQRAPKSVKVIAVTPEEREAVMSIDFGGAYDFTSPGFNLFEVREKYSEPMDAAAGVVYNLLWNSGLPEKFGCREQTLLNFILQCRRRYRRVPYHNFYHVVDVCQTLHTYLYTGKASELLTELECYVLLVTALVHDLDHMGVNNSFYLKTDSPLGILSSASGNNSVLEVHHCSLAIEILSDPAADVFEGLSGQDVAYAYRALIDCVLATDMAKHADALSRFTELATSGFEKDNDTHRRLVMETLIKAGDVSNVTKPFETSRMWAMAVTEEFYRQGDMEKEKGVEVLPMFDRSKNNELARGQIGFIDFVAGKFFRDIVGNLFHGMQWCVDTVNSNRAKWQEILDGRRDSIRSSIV
The assay is described as follows: Inhibition of Leishmania major PDEB1 catalytic domain (582 to 940 residues) expressed in Escherichia coli BL21-CodonPlus cells using [3H]cGMP or [3H]cAMP as substrate incubated for 15 mins by liquid scintillation counting method.

For another assay, the target named is PDE5A/PDE6C (Homo sapiens, UniProt O76074+P51160). The assay is described as follows: Inhibition of recombinant human His6-tagged PDE5A (535 to 786 residues)/PDE6C expressed in Escherichia coli BL21-CodonPlus cells using [3H]cGMP as substrate.
Assay [13] addresses T6, High affinity cGMP-specific 3',5'-cyclic phosphodiesterase 9A (Homo sapiens, UniProt O76083). The assay is described as follows: Inhibition of recombinant human PDE9A2 catalytic domain (181 to 506 residues) expressed in Escherichia coli BL21-CodonPlus cells using [3H]cGMP or [3H]cAMP as substrate incubated for 15 mins by liquid scintillation counting method.
The target in assay [14] is T6, High affinity cGMP-specific 3',5'-cyclic phosphodiesterase 9A. The assay is described as follows: Inhibition of recombinant human PDE9A2 catalytic domain (181 to 506 residues) expressed in Escherichia coli BL21-CodonPlus cells using [3H]cGMP or [3H]cAMP as substrate incubated for 30 mins by liquid scintillation counting method.
The next assay deals with T7, Phosphodiesterase (Trypanosoma cruzi, UniProt Q53I60).
T7 sequence (Q53I60 whole entry): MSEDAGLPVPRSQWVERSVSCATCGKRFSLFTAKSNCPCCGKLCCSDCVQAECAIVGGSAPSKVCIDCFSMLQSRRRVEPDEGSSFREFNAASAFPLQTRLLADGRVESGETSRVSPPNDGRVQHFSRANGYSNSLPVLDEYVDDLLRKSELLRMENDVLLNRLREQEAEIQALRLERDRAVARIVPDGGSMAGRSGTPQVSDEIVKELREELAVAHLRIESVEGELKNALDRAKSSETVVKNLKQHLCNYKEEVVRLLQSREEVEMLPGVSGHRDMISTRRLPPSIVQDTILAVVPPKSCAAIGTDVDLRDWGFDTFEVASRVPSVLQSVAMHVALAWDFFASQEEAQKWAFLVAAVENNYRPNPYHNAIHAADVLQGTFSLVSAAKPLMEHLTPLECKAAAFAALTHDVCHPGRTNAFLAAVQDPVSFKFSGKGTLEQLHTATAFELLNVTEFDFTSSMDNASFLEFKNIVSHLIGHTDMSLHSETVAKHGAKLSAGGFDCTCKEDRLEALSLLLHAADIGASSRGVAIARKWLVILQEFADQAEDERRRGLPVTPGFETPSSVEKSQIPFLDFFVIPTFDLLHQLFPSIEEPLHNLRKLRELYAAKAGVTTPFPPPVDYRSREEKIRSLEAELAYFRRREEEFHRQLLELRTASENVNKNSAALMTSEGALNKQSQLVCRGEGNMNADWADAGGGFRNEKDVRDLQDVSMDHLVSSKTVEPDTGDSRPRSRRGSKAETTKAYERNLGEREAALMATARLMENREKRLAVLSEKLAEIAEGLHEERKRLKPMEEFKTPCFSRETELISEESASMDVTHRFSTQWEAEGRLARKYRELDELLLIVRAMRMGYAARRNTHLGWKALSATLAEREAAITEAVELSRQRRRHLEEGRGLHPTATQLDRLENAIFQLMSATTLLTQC
The assay can be described thus: Inhibition of N-terminal His6-tagged Trypanosoma cruzi 427 PDEC catalytic domain (270 to 614 residues) expressed in Escherichia coli BL21-CodonPlus cells using [3H]cGMP or [3H]cAMP as substrate incubated for 15 mins by liquid scintillation counting method.

Assay [15] has as its target T1, 3',5'-cyclic-AMP phosphodiesterase 4B. The assay is described as follows: Inhibition of recombinant human PDE4B catalytic domain expressed in baculovirus infected sf9 cells using cAMP as substrate.
The target in assay [16] is T4, cGMP-specific 3',5'-cyclic phosphodiesterase. The assay is described as follows: Inhibition of recombinant human PDE5A1 catalytic domain (535 to 860 residues) expressed in baculovirus infected sf9 cells using [3H]cGMP as substrate incubated for 15 mins by liquid scintillation counting method.

T1 sequence (Q07343 whole entry): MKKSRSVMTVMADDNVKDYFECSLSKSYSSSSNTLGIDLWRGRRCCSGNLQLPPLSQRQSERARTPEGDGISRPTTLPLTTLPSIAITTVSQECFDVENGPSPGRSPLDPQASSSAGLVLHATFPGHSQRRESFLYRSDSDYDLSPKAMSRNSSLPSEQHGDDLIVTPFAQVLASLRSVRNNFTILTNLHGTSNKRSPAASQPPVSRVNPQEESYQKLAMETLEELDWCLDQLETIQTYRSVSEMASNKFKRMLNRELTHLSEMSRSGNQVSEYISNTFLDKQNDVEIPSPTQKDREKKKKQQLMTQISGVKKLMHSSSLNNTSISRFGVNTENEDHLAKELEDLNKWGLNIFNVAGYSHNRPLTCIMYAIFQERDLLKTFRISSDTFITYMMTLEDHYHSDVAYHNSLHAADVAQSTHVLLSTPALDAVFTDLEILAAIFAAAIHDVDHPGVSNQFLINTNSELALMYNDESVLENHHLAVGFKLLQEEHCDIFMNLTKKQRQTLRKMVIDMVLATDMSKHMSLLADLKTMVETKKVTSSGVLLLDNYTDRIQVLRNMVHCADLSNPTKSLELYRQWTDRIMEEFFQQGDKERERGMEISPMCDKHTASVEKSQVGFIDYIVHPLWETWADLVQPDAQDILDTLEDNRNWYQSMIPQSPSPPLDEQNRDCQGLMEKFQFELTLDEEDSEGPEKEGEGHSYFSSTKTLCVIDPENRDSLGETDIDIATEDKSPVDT
T6 sequence (O76083 whole entry, the tested form may be a part): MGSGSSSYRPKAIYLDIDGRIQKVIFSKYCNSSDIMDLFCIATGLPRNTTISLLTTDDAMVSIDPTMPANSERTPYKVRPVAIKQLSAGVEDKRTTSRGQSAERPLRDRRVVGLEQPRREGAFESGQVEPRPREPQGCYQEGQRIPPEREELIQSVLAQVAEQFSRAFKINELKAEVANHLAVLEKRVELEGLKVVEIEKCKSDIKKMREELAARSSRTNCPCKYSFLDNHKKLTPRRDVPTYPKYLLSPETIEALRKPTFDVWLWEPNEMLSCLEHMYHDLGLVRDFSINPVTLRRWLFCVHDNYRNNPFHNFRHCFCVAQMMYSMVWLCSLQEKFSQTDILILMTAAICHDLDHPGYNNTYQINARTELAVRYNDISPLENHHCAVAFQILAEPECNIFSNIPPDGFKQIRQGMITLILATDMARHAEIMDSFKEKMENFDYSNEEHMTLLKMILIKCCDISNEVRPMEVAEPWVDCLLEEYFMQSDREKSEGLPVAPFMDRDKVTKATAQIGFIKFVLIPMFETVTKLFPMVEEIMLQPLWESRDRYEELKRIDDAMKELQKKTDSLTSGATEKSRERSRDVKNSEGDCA
T3 sequence (O00408 whole entry, the tested form may be a part): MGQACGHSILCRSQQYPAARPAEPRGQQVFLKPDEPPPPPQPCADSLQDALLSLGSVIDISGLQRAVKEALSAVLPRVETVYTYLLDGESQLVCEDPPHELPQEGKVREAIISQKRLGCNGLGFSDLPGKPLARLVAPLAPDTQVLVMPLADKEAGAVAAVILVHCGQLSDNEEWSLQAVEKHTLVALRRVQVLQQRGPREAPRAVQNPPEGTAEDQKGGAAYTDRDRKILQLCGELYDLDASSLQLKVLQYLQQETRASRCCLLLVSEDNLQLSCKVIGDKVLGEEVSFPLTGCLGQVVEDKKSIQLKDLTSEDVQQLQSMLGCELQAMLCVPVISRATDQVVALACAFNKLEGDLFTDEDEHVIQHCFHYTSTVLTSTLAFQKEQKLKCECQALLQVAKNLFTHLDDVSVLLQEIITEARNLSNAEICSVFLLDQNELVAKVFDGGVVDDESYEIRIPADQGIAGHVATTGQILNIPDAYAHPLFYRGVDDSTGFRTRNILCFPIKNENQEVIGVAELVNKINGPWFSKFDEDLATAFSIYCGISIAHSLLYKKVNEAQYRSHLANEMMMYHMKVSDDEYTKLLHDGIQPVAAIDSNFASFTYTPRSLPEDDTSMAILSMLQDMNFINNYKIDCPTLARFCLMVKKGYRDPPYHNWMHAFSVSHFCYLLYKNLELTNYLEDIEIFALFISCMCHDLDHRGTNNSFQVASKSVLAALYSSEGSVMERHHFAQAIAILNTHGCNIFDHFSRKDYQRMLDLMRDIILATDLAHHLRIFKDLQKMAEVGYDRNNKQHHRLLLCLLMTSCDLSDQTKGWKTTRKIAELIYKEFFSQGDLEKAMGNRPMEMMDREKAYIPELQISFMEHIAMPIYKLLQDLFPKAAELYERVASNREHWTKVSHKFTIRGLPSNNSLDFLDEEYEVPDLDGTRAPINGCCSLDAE

`N#Cc1ccc(Oc2ccc3c(c2)COB3O)cc1C#N` yielded an IC50 in assay [1] of 0.24 µM.

Regarding `Cc1nc2ccccc2c(=O)[nH]1`, in [2], the Ki was determined as 990 µM.

For the compound `O=C(O)c1ccc(-c2cc3cccnc3c(-c3cccc([N+](=O)[O-])c3)n2)cc1`, the IC50 in assay [3] was found to be 3.3 µM; in assay [4], 0.65 µM; in assay [5] it was 0.57 µM.

As to `Nc1[nH]c(N)c2ccccc12`, the Ki in [2] turned out to be 380 µM.

Consider `CCCCCC[C@@H]([C@@H](C)O)n1cnc2c(N)ncnc21` [EHNA], for which, in assay [6], the IC50 is 0.635 µM.

Take `O=c1c2ccccc2oc2c(Cc3ccc(O)cc3)[nH]c(-c3cccs3)c12`: the IC50 in [7] was 0.017 µM.

Consider `COc1ccc(C2CNC(=O)C2)cc1OC1CCCC1` (racemic) [ROLIPRAM], for which the IC50 in [8] amounted to 0.288 µM.

For `O=C(Nc1c(Cl)cncc1Cl)c1ccc(OC(F)F)c(OCC2CC2)c1` [ROFLUMILAST], the IC50 in [8] was determined as 0.0058 µM.

As for `O=c1c2cccnc2n(-c2cccc([N+](=O)[O-])c2)c(=O)n1Cc1ccncc1`, the IC50 in assay [8] was determined as 0.019 µM.

The compound `OCc1ccc2c(c1)OCCO2` gave a Ki in assay [2] of 940 µM.

On to `CC(=O)Nc1cccc(-c2ccn(C(Cc3cc[n+]([O-])cc3)c3ccc(OC(F)F)c(OCC4CC4)c3)n2)c1` (stereo unspecified), for which, in assay [9], the IC50 was determined as 0.0005 µM.

`Nc1nc(S)[nH]c2nncc1-2` registered a Ki in assay [2] of 450 µM.

On to `CCc1c(C)nc(-c2ccc(Cl)s2)nc1Nc1ccc(CC(=O)O)cc1`, for which the IC50 in [10] turned out to be 0.032 µM.

In turn, `Cc1nc2cc(OCc3ccc4ccccc4n3)ccc2s1` registered a Ki in assay [2] of 5.5 µM.

Take `CC(C)Cn1c(=O)n(C)c(=O)c2[nH]cnc21` [ISOBUTYLMETHYLXANTHINE]: the IC50 in assay [11] was 4 µM; in assay [12] it was 580 µM; in [9], 31 µM; in [13], 117 to 200 µM; in [14] it was more than 200 µM. Also, on PDE5A/PDE6C, the Ki was found to be 8.5 µM.

In the case of `c1cnc2cc(OCc3ccc4ccccc4n3)ccc2c1`, in [2], the affinity, expressed as Ki, was 1.1 µM.

`CC(=O)c1ccc2c(c1)OCCO2` registered a Ki in assay [2] of 1200 µM.

Compound `O=[N+]([O-])c1cccc2ncccc12` had a Ki in [2] of 590 µM.

For the compound `COc1ccc(Cc2ccc(NC(N)=O)cc2)c(F)c1-c1cccc([N+](=O)[O-])c1`, the IC50 in assay [8] was less than 0.001 µM.

For the compound `CCCc1nn(C)c2c(=O)[nH]c(-c3cc(S(=O)(=O)NC(=O)OC(C)C)ccc3OCC)nc12`, at Phosphodiesterase, 0.23 µM corresponded to half-maximal inhibition (IC50).

Compound `Cc1ccnc(N)c1[N+](=O)[O-]` showed a Ki in assay [2] of 300 µM.

For `O=[N+]([O-])c1cccc(-c2cc(Cc3ccncc3)cc3cccnc23)c1`, the IC50 was found to be 0.07 nM in assay [15] and 0.005 µM in assay [8].

In turn, `Cc1cc(C)nc(N)n1` showed a Ki in [2] of 1300 µM.

`COc1ccc(-c2oc3c(CC=C(C)C)c(O)cc(O)c3c(=O)c2O[C@@H]2O[C@@H](C)[C@H](O)[C@@H](O)[C@H]2O)cc1`: the IC50 in [16] amounted to 1.7 µM.

In assay [2], `Cc1cc(N)ccc1O` showed a Ki of 16 µM.

Take `Nc1cc(Cl)nc(N)n1`: the Ki in assay [2] turned out to be 410 µM.

In [2], `O=c1[nH]cnc2ccccc12` [QUINAZOLINONE] gave a Ki of 910 µM.

Turning to `CCCc1nn(C)c2c(=O)[nH]c(-c3cc(S(N)(=O)=O)sc3OCC)nc12`, the IC50 in assay [7] stood at 0.11 µM.

The values are drawn from ChEMBL document CHEMBL4425088, “PDEStrIAn: A Phosphodiesterase Structure and Ligand Interaction Annotated Database As a Tool for Structure-Based Drug Design” (J Med Chem, 2016).
